Measurements: ChEMBL document CHEMBL4507301 (2021)

Assays:
[1] = target: Serine/threonine-protein kinase 32B (Homo sapiens) (UniProt Q9NY57); settings: Compound concentration 1000.0 nM
[2] = tested on: Tyrosine-protein kinase ABL1 (Homo sapiens), P00519 [Q252H]; settings: Compound concentration 1000.0 nM
[3] = target: 5-hydroxytryptamine receptor 2B (Homo sapiens) (UniProt P41595); settings: Compound concentration 10.0 uM
[4] = target: D(1A) dopamine receptor (Homo sapiens) (UniProt P21728); settings: Compound concentration 10.0 uM
[5] = target: Histamine H4 receptor (Homo sapiens) (UniProt Q9H3N8); settings: Compound concentration 10.0 uM
[6] = target: Phosphatidylinositol 4-kinase beta (Homo sapiens) (UniProt Q9UBF8); settings: Compound concentration 1000.0 nM
[7] = target: Serine/threonine-protein kinase 35 (Homo sapiens) (UniProt Q8TDR2); settings: Compound concentration 1000.0 nM
[8] = target: Serine/threonine-protein kinase 16 (Homo sapiens) (UniProt O75716); settings: Compound concentration 1000.0 nM
[9] = target: Death-associated protein kinase 2 (Homo sapiens) (UniProt Q9UIK4); settings: Compound concentration 1000.0 nM
[10] = target: cGMP-dependent protein kinase 2 (Homo sapiens) (UniProt Q13237); settings: Compound concentration 1000.0 nM
[11] = target: G protein-coupled receptor kinase 3 (Homo sapiens) (UniProt P35626); settings: Compound concentration 1000.0 nM
[12] = target: Bone morphogenetic protein receptor type-2 (Homo sapiens) (UniProt Q13873); settings: Compound concentration 1000.0 nM
[13] = target: Muscle, skeletal receptor tyrosine-protein kinase (Homo sapiens) (UniProt O15146); settings: Compound concentration 1000.0 nM
[14] = target: Serine/threonine-protein kinase MAK (Homo sapiens) (UniProt P20794); settings: Compound concentration 1000.0 nM
[15] = target: Ephrin type-A receptor 4 (Homo sapiens) (UniProt P54764); settings: Compound concentration 1000.0 nM
[16] = target: Tyrosine-protein kinase Lck (Homo sapiens) (UniProt P06239); settings: Compound concentration 1000.0 nM
[17] = target: Serine/threonine-protein kinase Nek11 (Homo sapiens) (UniProt Q8NG66); settings: Compound concentration 1000.0 nM
[18] = tested on: Tyrosine-protein kinase ABL1 (Homo sapiens), P00519 [T315I]; settings: Compound concentration 1000.0 nM
[19] = target: Atypical kinase COQ8B, mitochondrial (Homo sapiens) (UniProt Q96D53); settings: Compound concentration 1000.0 nM
[20] = target: Platelet-derived growth factor receptor beta (Homo sapiens) (UniProt P09619); settings: Compound concentration 1000.0 nM
[21] = target: GABA-A receptor; anion channel (Rattus norvegicus) (UniProt O09028+P15431+P18506+P18508+P19969+P20236+P23574+P23576+P28471+P28473+P30191+P62813+P63079+P63138+Q91ZM7+Q9ES14); settings: Compound concentration 10.0 uM
[22] = target: Testis-specific serine/threonine-protein kinase 3 (Homo sapiens) (UniProt Q96PN8); settings: Compound concentration 1000.0 nM
[23] = target: Serine/threonine-protein kinase PAK 6 (Homo sapiens) (UniProt Q9NQU5); settings: Compound concentration 1000.0 nM
[24] = target: SRSF protein kinase 1 (Homo sapiens) (UniProt Q96SB4); settings: Compound concentration 1000.0 nM
[25] = target: Rhodopsin kinase GRK1 (Homo sapiens) (UniProt Q15835); settings: Compound concentration 1000.0 nM
[26] = target: T1, Alpha-2C adrenergic receptor (Homo sapiens) (UniProt P18825); settings: Compound concentration 10.0 uM
T1 sequence (whole entry): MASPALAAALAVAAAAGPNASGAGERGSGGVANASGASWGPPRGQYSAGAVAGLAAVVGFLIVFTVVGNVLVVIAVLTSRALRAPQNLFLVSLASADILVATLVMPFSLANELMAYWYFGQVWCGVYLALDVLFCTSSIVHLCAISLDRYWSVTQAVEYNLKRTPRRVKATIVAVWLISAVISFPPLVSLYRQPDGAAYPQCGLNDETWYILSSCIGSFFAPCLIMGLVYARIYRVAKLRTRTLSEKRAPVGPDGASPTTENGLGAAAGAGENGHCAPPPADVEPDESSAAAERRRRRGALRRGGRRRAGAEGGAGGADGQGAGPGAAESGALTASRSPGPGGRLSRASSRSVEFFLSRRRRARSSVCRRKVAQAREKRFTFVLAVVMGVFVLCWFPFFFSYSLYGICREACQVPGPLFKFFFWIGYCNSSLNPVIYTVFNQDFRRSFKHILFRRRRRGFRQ

[27] = target: Cyclin-G-associated kinase (Homo sapiens) (UniProt O14976); settings: Compound concentration 1000.0 nM
[28] = target: Mast/stem cell growth factor receptor Kit (Homo sapiens) (UniProt P10721); settings: Compound concentration 1000.0 nM
[29] = tested on: eIF-2-alpha kinase GCN2 (Homo sapiens), Q9P2K8 [S808G]; settings: Compound concentration 1000.0 nM
[30] = target: Death-associated protein kinase 3 (Homo sapiens) (UniProt O43293); settings: Compound concentration 1000.0 nM
[31] = target: TGF-beta receptor type-2 (Homo sapiens) (UniProt P37173); settings: Compound concentration 1000.0 nM
[32] = target: Muscarinic acetylcholine receptor M5 (Homo sapiens) (UniProt P08912); settings: Compound concentration 10.0 uM
[33] = target: Mitogen-activated protein kinase 9 (Homo sapiens) (UniProt P45984); settings: Compound concentration 1000.0 nM
[34] = target: Protein kinase C epsilon type (Homo sapiens) (UniProt Q02156); settings: Compound concentration 1000.0 nM
[35] = target: Homeodomain-interacting protein kinase 2 (Homo sapiens) (UniProt Q9H2X6); settings: Compound concentration 1000.0 nM
[36] = tested on: Mast/stem cell growth factor receptor Kit (Homo sapiens), P10721 [D816V]; settings: Compound concentration 1000.0 nM
[37] = target: Serine/threonine-protein kinase PAK 4 (Homo sapiens) (UniProt O96013); settings: Compound concentration 1000.0 nM
[38] = target: Activin receptor type-1 (Homo sapiens) (UniProt Q04771); settings: Compound concentration 1000.0 nM

Bone morphogenetic protein receptor type-2 (Homo sapiens), sequence (Q13873 whole entry): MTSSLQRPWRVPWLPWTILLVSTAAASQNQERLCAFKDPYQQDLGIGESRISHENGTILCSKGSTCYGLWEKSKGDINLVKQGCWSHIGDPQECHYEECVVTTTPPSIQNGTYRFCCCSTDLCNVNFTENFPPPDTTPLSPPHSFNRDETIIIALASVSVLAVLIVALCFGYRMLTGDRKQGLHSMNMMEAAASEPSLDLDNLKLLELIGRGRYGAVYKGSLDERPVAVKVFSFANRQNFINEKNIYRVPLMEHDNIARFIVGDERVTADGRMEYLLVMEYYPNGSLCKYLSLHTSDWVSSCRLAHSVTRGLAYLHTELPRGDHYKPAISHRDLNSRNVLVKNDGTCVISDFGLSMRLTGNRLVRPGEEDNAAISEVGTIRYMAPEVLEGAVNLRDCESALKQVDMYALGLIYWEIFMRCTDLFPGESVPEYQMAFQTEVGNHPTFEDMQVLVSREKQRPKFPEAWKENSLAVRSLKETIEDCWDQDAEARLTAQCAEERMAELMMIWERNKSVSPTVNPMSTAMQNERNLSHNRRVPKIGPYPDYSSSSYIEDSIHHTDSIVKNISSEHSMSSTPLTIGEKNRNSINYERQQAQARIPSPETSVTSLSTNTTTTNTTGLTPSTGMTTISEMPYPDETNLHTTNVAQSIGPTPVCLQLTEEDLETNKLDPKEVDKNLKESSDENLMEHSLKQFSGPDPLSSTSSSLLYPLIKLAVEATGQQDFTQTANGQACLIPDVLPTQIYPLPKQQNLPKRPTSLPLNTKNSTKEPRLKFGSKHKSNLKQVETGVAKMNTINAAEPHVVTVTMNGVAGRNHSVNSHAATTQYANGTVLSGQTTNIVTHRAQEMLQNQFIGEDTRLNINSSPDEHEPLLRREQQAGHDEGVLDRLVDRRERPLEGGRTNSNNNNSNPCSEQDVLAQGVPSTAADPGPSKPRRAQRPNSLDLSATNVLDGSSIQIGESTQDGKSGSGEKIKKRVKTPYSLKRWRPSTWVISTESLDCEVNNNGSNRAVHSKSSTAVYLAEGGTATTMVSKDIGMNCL
Serine/threonine-protein kinase 32B (Homo sapiens), sequence (Q9NY57 whole entry): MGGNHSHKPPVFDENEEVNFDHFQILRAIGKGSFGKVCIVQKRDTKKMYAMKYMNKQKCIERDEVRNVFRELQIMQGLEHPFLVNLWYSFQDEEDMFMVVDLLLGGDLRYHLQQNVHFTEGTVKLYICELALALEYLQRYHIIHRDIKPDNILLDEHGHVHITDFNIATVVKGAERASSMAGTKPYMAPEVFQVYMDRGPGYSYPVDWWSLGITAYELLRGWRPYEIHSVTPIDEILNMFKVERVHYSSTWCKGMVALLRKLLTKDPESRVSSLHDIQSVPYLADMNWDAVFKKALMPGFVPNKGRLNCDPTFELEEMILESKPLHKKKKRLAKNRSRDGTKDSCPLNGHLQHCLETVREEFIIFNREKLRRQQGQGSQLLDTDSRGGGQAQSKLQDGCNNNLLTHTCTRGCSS
5-hydroxytryptamine receptor 2B (Homo sapiens), sequence (P41595 whole entry): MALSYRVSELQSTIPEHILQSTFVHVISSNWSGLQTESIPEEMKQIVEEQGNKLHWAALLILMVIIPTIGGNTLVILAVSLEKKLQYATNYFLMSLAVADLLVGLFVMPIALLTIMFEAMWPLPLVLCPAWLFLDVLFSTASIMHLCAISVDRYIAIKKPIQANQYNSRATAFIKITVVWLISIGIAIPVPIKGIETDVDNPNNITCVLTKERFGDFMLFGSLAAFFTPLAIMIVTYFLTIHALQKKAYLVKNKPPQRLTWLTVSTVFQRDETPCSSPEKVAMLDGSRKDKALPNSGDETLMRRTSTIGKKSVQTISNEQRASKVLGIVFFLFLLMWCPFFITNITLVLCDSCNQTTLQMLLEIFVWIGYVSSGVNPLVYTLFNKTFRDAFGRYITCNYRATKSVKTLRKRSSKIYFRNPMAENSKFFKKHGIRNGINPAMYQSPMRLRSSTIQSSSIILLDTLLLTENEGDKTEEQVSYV
Serine/threonine-protein kinase PAK 6 (Homo sapiens), sequence (Q9NQU5 whole entry, looked up): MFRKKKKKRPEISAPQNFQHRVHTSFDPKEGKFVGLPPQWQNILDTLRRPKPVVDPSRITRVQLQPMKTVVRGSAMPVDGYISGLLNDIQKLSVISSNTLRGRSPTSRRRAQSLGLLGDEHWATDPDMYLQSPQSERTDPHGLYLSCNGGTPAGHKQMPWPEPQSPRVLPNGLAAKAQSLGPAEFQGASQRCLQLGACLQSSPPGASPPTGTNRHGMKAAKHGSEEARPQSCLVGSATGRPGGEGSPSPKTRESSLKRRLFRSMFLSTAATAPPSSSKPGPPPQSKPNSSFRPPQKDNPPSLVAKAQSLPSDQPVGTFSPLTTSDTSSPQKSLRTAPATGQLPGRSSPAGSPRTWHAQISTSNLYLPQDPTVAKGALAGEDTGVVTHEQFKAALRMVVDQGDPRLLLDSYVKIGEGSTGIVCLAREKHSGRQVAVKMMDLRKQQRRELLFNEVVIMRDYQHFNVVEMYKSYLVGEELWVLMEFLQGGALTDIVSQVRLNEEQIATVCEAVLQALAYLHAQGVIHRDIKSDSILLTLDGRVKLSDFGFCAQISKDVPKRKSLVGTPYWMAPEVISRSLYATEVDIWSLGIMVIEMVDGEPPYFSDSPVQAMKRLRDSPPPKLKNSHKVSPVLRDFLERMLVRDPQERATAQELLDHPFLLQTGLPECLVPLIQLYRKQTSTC
Mast/stem cell growth factor receptor Kit (Homo sapiens), sequence (P10721 whole entry): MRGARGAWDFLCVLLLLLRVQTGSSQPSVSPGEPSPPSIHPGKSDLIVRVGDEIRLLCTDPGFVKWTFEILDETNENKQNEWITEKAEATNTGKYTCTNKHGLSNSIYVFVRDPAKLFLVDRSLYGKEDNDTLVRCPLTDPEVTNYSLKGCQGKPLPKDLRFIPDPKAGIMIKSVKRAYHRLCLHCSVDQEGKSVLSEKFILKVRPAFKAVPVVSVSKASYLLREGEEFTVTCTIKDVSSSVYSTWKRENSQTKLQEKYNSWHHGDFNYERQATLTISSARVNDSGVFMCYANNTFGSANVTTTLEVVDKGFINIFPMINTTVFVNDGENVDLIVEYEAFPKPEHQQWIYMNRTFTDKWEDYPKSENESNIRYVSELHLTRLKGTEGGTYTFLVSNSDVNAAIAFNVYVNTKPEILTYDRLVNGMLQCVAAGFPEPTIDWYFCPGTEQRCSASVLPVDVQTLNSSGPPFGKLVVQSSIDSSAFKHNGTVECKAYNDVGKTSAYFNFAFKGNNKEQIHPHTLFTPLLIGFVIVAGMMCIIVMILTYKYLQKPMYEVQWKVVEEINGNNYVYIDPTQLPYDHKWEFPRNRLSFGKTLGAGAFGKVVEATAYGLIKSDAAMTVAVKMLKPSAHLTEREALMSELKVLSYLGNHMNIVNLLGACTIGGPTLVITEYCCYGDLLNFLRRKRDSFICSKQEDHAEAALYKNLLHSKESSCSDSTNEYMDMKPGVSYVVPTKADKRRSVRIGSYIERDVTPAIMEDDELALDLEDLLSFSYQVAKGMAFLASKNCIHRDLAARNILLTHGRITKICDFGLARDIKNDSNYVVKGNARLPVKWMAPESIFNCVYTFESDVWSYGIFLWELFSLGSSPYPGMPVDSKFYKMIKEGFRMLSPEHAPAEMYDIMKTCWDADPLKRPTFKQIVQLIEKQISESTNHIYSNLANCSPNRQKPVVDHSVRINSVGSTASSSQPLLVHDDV
Homeodomain-interacting protein kinase 2 (Homo sapiens), sequence (Q9H2X6 whole entry, looked up): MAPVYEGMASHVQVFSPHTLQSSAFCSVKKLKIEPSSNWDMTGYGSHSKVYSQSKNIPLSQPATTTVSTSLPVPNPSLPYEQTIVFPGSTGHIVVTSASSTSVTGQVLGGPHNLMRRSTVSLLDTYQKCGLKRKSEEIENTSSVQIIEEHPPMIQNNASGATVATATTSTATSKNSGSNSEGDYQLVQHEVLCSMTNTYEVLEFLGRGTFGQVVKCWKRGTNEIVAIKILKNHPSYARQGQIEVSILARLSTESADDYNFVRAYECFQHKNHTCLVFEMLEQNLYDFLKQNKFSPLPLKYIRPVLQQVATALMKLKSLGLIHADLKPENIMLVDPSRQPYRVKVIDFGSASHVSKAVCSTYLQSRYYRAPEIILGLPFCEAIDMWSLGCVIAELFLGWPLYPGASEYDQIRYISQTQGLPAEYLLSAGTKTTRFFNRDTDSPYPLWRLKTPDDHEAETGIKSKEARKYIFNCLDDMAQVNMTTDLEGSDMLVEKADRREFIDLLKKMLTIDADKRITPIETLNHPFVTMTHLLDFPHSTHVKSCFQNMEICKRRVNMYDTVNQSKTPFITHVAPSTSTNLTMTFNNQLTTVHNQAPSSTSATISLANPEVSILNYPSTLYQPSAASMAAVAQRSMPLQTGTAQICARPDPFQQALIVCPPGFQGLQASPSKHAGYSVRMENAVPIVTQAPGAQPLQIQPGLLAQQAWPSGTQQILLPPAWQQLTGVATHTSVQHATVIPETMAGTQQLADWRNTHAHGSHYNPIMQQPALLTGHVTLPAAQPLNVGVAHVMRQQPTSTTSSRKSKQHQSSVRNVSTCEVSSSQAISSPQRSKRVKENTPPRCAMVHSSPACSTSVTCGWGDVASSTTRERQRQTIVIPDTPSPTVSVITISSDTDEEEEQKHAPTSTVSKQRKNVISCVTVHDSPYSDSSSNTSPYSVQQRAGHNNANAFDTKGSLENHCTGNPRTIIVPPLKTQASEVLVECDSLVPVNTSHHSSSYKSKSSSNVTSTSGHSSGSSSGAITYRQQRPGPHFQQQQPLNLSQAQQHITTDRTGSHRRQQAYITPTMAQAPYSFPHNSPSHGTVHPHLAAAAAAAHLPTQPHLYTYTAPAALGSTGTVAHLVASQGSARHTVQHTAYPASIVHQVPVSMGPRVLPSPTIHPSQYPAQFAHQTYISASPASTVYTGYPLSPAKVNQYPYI
Testis-specific serine/threonine-protein kinase 3 (Homo sapiens), sequence (Q96PN8 whole entry): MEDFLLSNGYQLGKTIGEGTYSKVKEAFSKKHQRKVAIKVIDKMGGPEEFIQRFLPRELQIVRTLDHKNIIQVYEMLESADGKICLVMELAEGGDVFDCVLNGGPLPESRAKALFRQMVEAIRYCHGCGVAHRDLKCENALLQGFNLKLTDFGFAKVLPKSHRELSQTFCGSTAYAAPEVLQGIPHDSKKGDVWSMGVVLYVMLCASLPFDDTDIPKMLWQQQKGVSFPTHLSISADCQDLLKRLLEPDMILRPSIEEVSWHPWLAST

Structure (SMILES): C[C@@H](c1cccc(C#N)c1)n1cc(Cl)cc(C(N)=O)c1=N [(S)-9s]
- residual activity [1]: 100%
- residual activity [2]: 78%
- inhibition [3]: 3.93%
- inhibition [4]: -6.15%
- inhibition [5]: 0.47%
- residual activity [6]: 85%
- residual activity [7]: 100%
- residual activity [8]: 85%
- residual activity [9]: 100%
- residual activity [10]: 100%
- residual activity [11]: 81%
- residual activity [12]: 100%
- residual activity [13]: 100%
- residual activity [14]: 94%
- residual activity [15]: 90%
- residual activity [16]: 90%
- residual activity [17]: 92%
- residual activity [18]: 85%
- residual activity [19]: 88%
- residual activity [20]: 84%
- inhibition [21]: 8.14%
- residual activity [22]: 100%
- residual activity [23]: 86%
- residual activity [24]: 100%
- residual activity [25]: 75%
- inhibition [26]: 3.93%
- residual activity [27]: 100%
- residual activity [28]: 78%
- residual activity [29]: 50%
- residual activity [30]: 100%
- residual activity [31]: 100%
- inhibition [32]: -1.05%
- residual activity [33]: 82%
- residual activity [34]: 89%
- residual activity [35]: 100%
- residual activity [36]: 94%
- residual activity [37]: 100%
- residual activity [38]: 96%

Structure (SMILES): C[C@H](c1cccc(C#N)c1)n1cc(Cl)cc(C(N)=O)c1=N [(R)-9s]
- residual activity [1]: 100%
- residual activity [2]: 84%
- inhibition [3]: 9.88%
- inhibition [4]: 1.16%
- inhibition [5]: -2.33%
- residual activity [6]: 100%
- residual activity [7]: 88%
- residual activity [8]: 100%
- residual activity [9]: 100%
- residual activity [10]: 97%
- residual activity [11]: 76%
- residual activity [12]: 97%
- residual activity [13]: 100%
- residual activity [14]: 100%
- residual activity [15]: 65%
- residual activity [16]: 100%
- residual activity [17]: 100%
- residual activity [18]: 92%
- residual activity [19]: 100%
- residual activity [20]: 83%
- inhibition [21]: 1.07%
- residual activity [22]: 100%
- residual activity [23]: 100%
- residual activity [24]: 96%
- residual activity [25]: 74%
- inhibition [26]: 42.7%
- residual activity [27]: 100%
- residual activity [28]: 98%
- residual activity [29]: 45%
- residual activity [30]: 100%
- residual activity [31]: 100%
- inhibition [32]: 3.44%
- residual activity [33]: 96%
- residual activity [34]: 87%
- residual activity [35]: 100%
- residual activity [36]: 87%
- residual activity [37]: 100%
- residual activity [38]: 88%
